Experimental findings from PMC12807552, “The Synthesis of BODIPY-TKI Conjugates and Investigation of Their Ability to Target the Epidermal Growth Factor Receptor” (Targets (Basel), 2023) are described below.

The experiment concerns the target EGFR kinase domain (epidermal growth factor receptor) (Homo sapiens, UniProt P00533). Put plainly: biochemical.

As usually defined, the Kd is the constant that tells how readily two partners part at equilibrium. Higher therefore signals lower affinity.

Molecules are shown by their SMILES.

Sequence of EGFR kinase domain (epidermal growth factor receptor) (P00533 695-1210): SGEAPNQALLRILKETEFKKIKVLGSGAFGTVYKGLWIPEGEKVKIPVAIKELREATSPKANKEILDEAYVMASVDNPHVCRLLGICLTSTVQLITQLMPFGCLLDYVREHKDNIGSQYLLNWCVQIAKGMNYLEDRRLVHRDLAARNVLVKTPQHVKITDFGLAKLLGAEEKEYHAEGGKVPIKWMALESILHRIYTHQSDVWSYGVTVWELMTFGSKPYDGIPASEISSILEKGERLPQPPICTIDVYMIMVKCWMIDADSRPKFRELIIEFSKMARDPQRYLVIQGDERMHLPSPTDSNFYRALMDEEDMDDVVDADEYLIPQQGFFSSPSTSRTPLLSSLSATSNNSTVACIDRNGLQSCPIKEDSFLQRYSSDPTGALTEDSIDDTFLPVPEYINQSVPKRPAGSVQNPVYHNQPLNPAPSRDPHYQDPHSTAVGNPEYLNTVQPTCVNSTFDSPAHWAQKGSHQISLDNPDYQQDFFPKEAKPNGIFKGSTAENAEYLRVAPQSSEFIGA

Consider `COCCOc1cc2ncnc(Nc3cccc(-c4cn(CCOCCOCCOCCNC(=S)Nc5ccc(-c6c7ccccc7c7n6[B-](F)(F)[N+]6=C(c8ccc(N=C=S)cc8)c8ccccc8C6=C7c6cc(OC)cc(OC)c6)cc5)nn4)c3)c2cc1OCCOC` [compound 5, BODIPY-monoTKI], for which the Kd worked out at 8.04 µM.
